Measured values reported in publication PMC8472993, “A Novel Glutathione S-Transferase Gtt2 Class (VpGSTT2) Is Found in the Genome of the AHPND/EMS Vibrio parahaemolyticus Shrimp Pathogen” (Toxins, 2021).

Key:
[1] = biological target: T1, VpGSTT2 (Vibrio parahaemolyticus, UniProt Q87HB4); experiment: spectrophotometric CDNB conjugation at […] nm, initial rates; assay type: biochemical; details: read-out: CDNB / Km; CDNB 0.3-2 mM, GSH 0.5 mM fixed; phosphate buffer (0.1 M NaH2PO4 pH 6.5), room temperature
T1 construct: gene VPA1051; Full coding region, synthetic E. coli-optimised gene in pET11a; C-terminal PreScission site and 6xHis tag (tag removal described); E. coli BL21(DE3) Gold
T1 sequence (Q87HB4 1-204): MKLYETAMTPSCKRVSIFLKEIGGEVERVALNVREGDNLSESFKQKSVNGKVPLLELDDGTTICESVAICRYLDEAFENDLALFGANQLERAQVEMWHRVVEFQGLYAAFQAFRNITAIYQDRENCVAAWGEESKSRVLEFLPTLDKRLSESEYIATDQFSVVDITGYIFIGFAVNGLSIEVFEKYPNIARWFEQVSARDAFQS

[2] = biological target: Glutathione S-transferase class Gtt2 from Vibrio parahaemolyticus (VpGSTT2) (Vibrio parahaemolyticus (strain FIM-S1708+)); experiment: SEC; Superdex 75 HR 10/300 GL on an Äkta Pure, calibrated with molecular-weight standards (conalbumin, ovalbumin, carbonic anhydrase, ribonuclease A, aprotinin); VpGSTT2 eluted at 10.8 mL, corresponding to 48.2 kDa; protein dialysed against Tris-HCl, 150 mM NaCl, pH 7.2

Compound	Km [1] [µM]	stoichiometry N [2]
O=[N+]([O-])c1ccc(Cl)c([N+](=O)[O-])c1 [CDNB, 1-chloro-2,4-dinitrobenzene]	1000	–
Glutathione S-transferase class Gtt2 from Vibrio parahaemolyticus (VpGSTT2) (enzyme)	–	2
